Here are results for 31 compounds from US8735406B2, “8-oxodihydropurine derivative” (Dainippon Sumitomo Pharma Co., Ltd., priority 2009, dated 2014).

Where a name gives a salt, the structure may show the parent alone.

The target in the test is T1, FAAH (Rattus norvegicus, UniProt P97612).
T1 construct: Preparation of Rat Brain Membranes Preparations (FAAH Enzyme Solution); from tissue; host or cells: rat cerebrum (brain membrane preparation)
T1 sequence (P97612 1-579): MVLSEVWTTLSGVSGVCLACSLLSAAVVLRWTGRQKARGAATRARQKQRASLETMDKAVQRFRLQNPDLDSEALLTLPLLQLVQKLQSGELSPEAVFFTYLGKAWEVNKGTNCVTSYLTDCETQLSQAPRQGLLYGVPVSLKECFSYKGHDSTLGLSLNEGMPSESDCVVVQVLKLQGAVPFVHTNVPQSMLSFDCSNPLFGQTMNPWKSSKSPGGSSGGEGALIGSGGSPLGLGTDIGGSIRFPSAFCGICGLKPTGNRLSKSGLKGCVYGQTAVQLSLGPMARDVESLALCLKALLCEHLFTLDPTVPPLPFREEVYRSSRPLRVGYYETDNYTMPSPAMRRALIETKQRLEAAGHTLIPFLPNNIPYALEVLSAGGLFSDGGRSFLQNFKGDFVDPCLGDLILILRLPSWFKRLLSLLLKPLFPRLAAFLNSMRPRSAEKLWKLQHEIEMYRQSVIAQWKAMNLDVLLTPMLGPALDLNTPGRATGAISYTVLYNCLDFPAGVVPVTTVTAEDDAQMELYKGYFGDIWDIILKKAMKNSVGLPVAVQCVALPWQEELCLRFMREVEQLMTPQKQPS
Put plainly: Determination of FAAH inhibitory activity in rat (rat brain membrane preparations, [3H]-anandamide hydrolysis). The class given is biochemical. Particulars: rat brain membrane preparations; for inhibition at 0.1 µM: at 100 nM, read-out: FAAH Inhibition Inhibition Rate at 100 nM; for IC50: read-out: FAAH Inhibition IC50. A digest of the protocol: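 Compounds tested from 0.1 nM to 1 μM to derive IC50 against FAAH hydrolysis in rat brain membrane preparations (100 μg/mL). A 10-min 37 °C preincubation was followed by 10 min with [3H]-anandamide (2 nM) mixed with 2 μM unlabelled anandamide. Radioactive ethanolamine was extracted into the water/methanol layer and counted.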

In general, inhibition refers to the relative decrease from the control value, in per cent. For orientation: IC50 means the concentration that inhibits the measured activity by half. With `CN(C)C(=O)n1c(=O)n(C)c2cnc(CCCc3ccccc3)nc21` [Example 614], the inhibition at 0.1 µM is 81% and the IC50 came out at 0.028 µM.

`CN(C)C(=O)n1c(=O)n(C)c2cnc(CCC3CCCCC3)nc21` [Example 615]: the inhibition at 0.1 µM came out at 96% and the IC50 worked out at 0.01 µM.

Take `CN(C)C(=O)n1c(=O)n(C)c2cnc(CCCC3CCCCC3)nc21` [Example 616]: the inhibition at 0.1 µM was 99% and the IC50 came to 0.01 µM.

For the compound `CN(C)C(=O)n1c(=O)n(C)c2cnc(CCCC3CCCC3)nc21` [Example 617], the inhibition at 0.1 µM was found to be 93% and the IC50 came out at 0.006 µM.

As to `CN(C)C(=O)n1c(=O)n(C)c2cnc(CCCCc3ccccc3)nc21` [Example 618], the inhibition at 0.1 µM was determined as 101% and the IC50 was 0.01 µM.

For `Cn1c(=O)n(C(=O)N2CCC2)c2nc(CCCC3CCCCC3)ncc21` [Example 619], the inhibition at 0.1 µM was found to be 103% and the IC50 came out at 0.009 µM.

Turning to `Cn1c(=O)n(C(=O)N2CCC2)c2nc(CCc3ccc4c(c3)CCO4)ncc21` [Example 620], the inhibition at 0.1 µM was 87% and the IC50 worked out at 0.088 µM.

As to `CCCc1ncc2c(n1)n(C)c(=O)n2C(=O)N1CC(Oc2ccccc2CC)C1` [Example 629], the inhibition at 0.1 µM stood at 48% and the IC50 stood at 0.105 µM.

With `Cn1c(=O)n(C(=O)N2CC(c3ccc(F)cc3)C2)c2nc(C3CC3)ncc21` [Example 630], the inhibition at 0.1 µM was determined as 102% and the IC50 was 0.01 µM.

Take `Cn1c(=O)n(C(=O)N2CC(c3ccccc3)C2)c2nc(C3CC3)ncc21` [Example 631]: the inhibition at 0.1 µM is 77% and the IC50 came out at 0.036 µM.

`Cn1c(=O)n(C(=O)N2CC(c3cccc(F)c3)C2)c2nc(C3CC3)ncc21` [Example 632]: the inhibition at 0.1 µM amounted to 84% and the IC50 was found to be 0.031 µM.

Consider `CCCc1ncc2c(n1)n(C(=O)N1CC(c3cccc(F)c3)C1)c(=O)n2C` [Example 633], for which the inhibition at 0.1 µM came out at 82% and the IC50 came to 0.019 µM.

With `CCc1ncc2c(n1)n(C(=O)N1CC(c3ccccc3)C1)c(=O)n2C` [Example 634], the inhibition at 0.1 µM came out at 95% and the half-inhibitory concentration (IC50) worked out at 0.098 µM.

Take `CCc1ncc2c(n1)n(C(=O)N1CC(c3cccc(F)c3)C1)c(=O)n2C` [Example 635]: the inhibition at 0.1 µM turned out to be 88% and the half-inhibitory concentration (IC50) turned out to be 0.044 µM.

Turning to `CCCc1ncc2c(n1)n(C(=O)N1CC(c3ccc(F)cc3)C1)c(=O)n2C` [Example 636], the inhibition at 0.1 µM is 94% and the IC50 was found to be 0.078 µM.

With `CCCc1ncc2c(n1)n(C(=O)N1CC(c3ccccc3)C1)c(=O)n2C` [Example 637], the inhibition at 0.1 µM was found to be 102% and the IC50 came out at 0.007 µM.

On to `CN(C)C(=O)n1c(=O)n(C)c2cnc(CCOc3ccc(C(F)(F)F)cc3)nc21` [Example 638, N,N,7-trimethyl-8-oxo-2-{2-[4-(trifluoromethyl)phenoxy]ethyl}-7,8-dihydro-9H-purine-9-carboxamide hydrochloric acid salt], for which the inhibition at 0.1 µM is 95% and the IC50 is 0.012 µM.

Turning to `CN(C)C(=O)n1c(=O)n(C)c2cnc(CCOc3cccc(Cl)c3)nc21` [Example 641, 2-[2-(3-Chlorophenoxy)ethyl]-N,N,7-trimethyl-8-oxo-7,8-dihydro-9H-purine-9-carboxamide], the inhibition at 0.1 µM came out at 105% and the IC50 worked out at 0.008 µM.

In the case of `CCn1c(=O)n(C(=O)N(C)C)c2nc(CCc3ccccc3F)ncc21` [Example 643], the inhibition at 0.1 µM turned out to be 97% and the IC50 is 0.016 µM.

For `CCn1c(=O)n(C(=O)N(C)C)c2nc(CCc3cccc(F)c3)ncc21` [Example 644, 7-Ethyl-2-[2-(3-fluorophenyl)ethyl]-N,N-dimethyl-8-oxo-7,8-dihydro-9H-purine-9-carboxamide], the inhibition at 0.1 µM was determined as 95% and the IC50 came out at 0.01 µM.

As for `CCn1c(=O)n(C(=O)N(C)C)c2nc(CCc3ccc(F)cc3)ncc21` [Example 645, 7-Ethyl-2-[2-(4-fluorophenyl)ethyl]-N,N-dimethyl-8-oxo-7,8-dihydro-9H-purine-9-carboxamide], the inhibition at 0.1 µM amounted to 98% and the IC50 stood at 0.02 µM.

In the case of `CCCn1c(=O)n(C(=O)N(C)C)c2nc(CCc3ccccc3F)ncc21` [Example 646, 2-[2-(2-Fluorophenyl)ethyl]-N,N-dimethyl-8-oxo-7-propyl-7,8-dihydro-9H-purine-9-carboxamide], the inhibition at 0.1 µM is 117% and the IC50 amounted to 0.013 µM.

For `CCCn1c(=O)n(C(=O)N(C)C)c2nc(CCc3cccc(F)c3)ncc21` [Example 647, 2-[2-(3-Fluorophenyl)ethyl]-N,N-dimethyl-8-oxo-7-propyl-7,8-dihydro-9H-purine-9-carboxamide], the inhibition at 0.1 µM was 100% and the IC50 was 0.01 µM.

`CCCn1c(=O)n(C(=O)N(C)C)c2nc(CCc3ccc(F)cc3)ncc21` [Example 648, 2-[2-(4-Fluorophenyl)ethyl]-N,N-dimethyl-8-oxo-7-propyl-7,8-dihydro-9H-purine-9-carboxamide]: the inhibition at 0.1 µM worked out at 87% and the IC50 amounted to 0.027 µM.

`CCn1c(=O)n(C(=O)N2CCC2)c2nc(CCc3ccccc3F)ncc21` [Example 649, 9-(Azetidin-1-ylcarbonyl)-7-ethyl-2-[2-(2-fluorophenyl)ethyl]-7,9-dihydro-8H-purine-8-one]: the inhibition at 0.1 µM came to 90% and the IC50 came to 0.017 µM.

For the compound `CCn1c(=O)n(C(=O)N2CCC2)c2nc(CCc3cccc(F)c3)ncc21` [Example 650, 9-(Azetidin-1-ylcarbonyl)-7-ethyl-2-[2-(3-fluorophenyl)ethyl]-7,9-dihydro-8H-purine-8-one], the inhibition at 0.1 µM was found to be 96% and the IC50 was determined as 0.01 µM.

As for `CCn1c(=O)n(C(=O)N2CCC2)c2nc(CCc3ccc(F)cc3)ncc21` [Example 651, 9-(Azetidin-1-ylcarbonyl)-7-ethyl-2-[2-(4-fluorophenyl)ethyl]-7,9-dihydro-8H-purine-8-one], the inhibition at 0.1 µM came out at 100% and the IC50 is 0.009 µM.

For the compound `CN(C)C(=O)n1c(=O)n(C)c2cnc(Cc3cccc(C(F)(F)F)c3)nc21` [Example 654, N,N,7-Trimethyl-8-oxo-2-[3-(trifluoromethyl)benzyl]-7,8-dihydro-9H-purine-9-carboxamide], the inhibition at 0.1 µM stood at 110% and the IC50 worked out at 0.011 µM.

Consider `CCn1c(=O)n(C(=O)N2CC(c3ccccc3)C2)c2cnc(COC)nc21` [Example 655, 9-Ethyl-2-(methoxymethyl)-7-[(3-phenylazetidin-1-yl)carbonyl]-7,9-dihydro-8H-purine-8-one], for which the inhibition at 0.1 µM amounted to 102% and the IC50 was 0.01 µM.

For `CCn1c(=O)n(C(=O)N2CC(c3ccc(F)cc3)C2)c2cnc(COC)nc21` [Example 656, 9-Ethyl-7-{[3-(4-fluorophenyl)azetidin-1-yl]carbonyl}-2-(methoxymethyl)-7,9-dihydro-8H-purine-8-one], the inhibition at 0.1 µM came out at 115% and the IC50 stood at 0.01 µM.

As for `CCn1c(=O)n(C(=O)N2CC(c3cccc(F)c3)C2)c2cnc(COC)nc21` [Example 657, 9-Ethyl-7-{[3-(3-fluorophenyl)azetidin-1-yl]carbonyl}-2-(methoxymethyl)-7,9-dihydro-8H-purine-8-one], the inhibition at 0.1 µM was 119% and the IC50 amounted to 0.009 µM.
